# Patent US12208092B2, “Compositions and methods for administering paltusotine to patients with hepatic impairment” (CRINETICS PHARMACEUTICALS, INC., priority 2023, dated 2025)
# Assay: Phase 1 hepatic impairment study, safety (TEAEs) after single oral 20 mg tablet
# [1] = normal hepatic function (N = 14)
# [2] = severe hepatic impairment (N = 6)
# Procedure: The secondary objective of the study was to assess the safety and tolerability of a single dose of paltusotine in subjects with varying degrees of hepatic impairment.
# Safety and tolerability were assessed by the following endpoints: reported adverse events (AEs), clinical laboratory test results (hematology, coagulation, serum chemistry, and urinalysis), vital sign measurements, and 12-lead electrocardiogram results
# All 36 subjects who were enrolled in the study received all planned single doses of paltusotine 20 mg (1×20 mg tablet) and were included in the safety and PK analysis populations.
smiles,measurement,setting,value
"N#Cc1cccc(-c2ccc3ncc(-c4cc(F)cc(F)c4)c(N4CCC(N)CC4)c3c2)c1O [paltusotine, 3-[4-(4-amino-1-piperidyl)-3-(3,5-difluorophenyl)-6-quinolyl]-2-hydroxybenzonitrile]","TEAE SOC Gastrointestinal disorders, number of occurrences",[1],5
same,"TEAE SOC Gastrointestinal disorders, subjects n (%)",[1],4 (28.6%)
same,"TEAE SOC General disorders and administration site conditions, subjects n (%)",[1],0
same,"TEAE SOC Infections and infestations, subjects n (%)",[1],0
same,"TEAE SOC Nervous system disorders, number of occurrences",[1],1
same,"TEAE SOC Nervous system disorders, subjects n (%)",[1],1 (7.1%)
same,"TEAE SOC Renal and urinary disorders, subjects n (%)",[1],0
same,"TEAEs Not Related to study drug (strongest relationship), subjects n (%)",[1],1 (7.1%)
same,"TEAEs Not Related to study drug, number of occurrences",[1],1
same,"TEAEs Related to study drug (strongest relationship), subjects n (%)",[1],3 (21.4%)
same,"TEAEs Related to study drug, number of occurrences",[1],5
same,"TEAEs by maximum severity: Mild, number of occurrences",[1],5
same,"TEAEs by maximum severity: Mild, subjects n (%)",[1],3 (21.4%)
same,"TEAEs by maximum severity: Moderate, number of occurrences",[1],1
same,"TEAEs by maximum severity: Moderate, subjects n (%)",[1],1 (7.1%)
same,"TEAEs by maximum severity: Severe, subjects n (%)",[1],0
same,Total number of SAEs reported,[1],0
same,Total number of TEAEs reported,[1],6
same,"Any SAEs, number of occurrences",overall (N = 36),1
same,"Any TEAE, number of occurrences",overall (N = 36),17
same,"Related TEAE Abdominal discomfort, number of occurrences",overall (N = 36),1
same,"Related TEAE Abdominal discomfort, subjects n (%)",overall (N = 36),1 (2.8%)
same,"Related TEAE Diarrhea, number of occurrences",overall (N = 36),5
same,"Related TEAE Diarrhea, subjects n (%)",overall (N = 36),5 (13.9%)
same,"Related TEAE Epigastric discomfort, number of occurrences",overall (N = 36),1
same,"Related TEAE Epigastric discomfort, subjects n (%)",overall (N = 36),1 (2.8%)
same,"Related TEAE Fatigue, number of occurrences",overall (N = 36),1
same,"Related TEAE Fatigue, subjects n (%)",overall (N = 36),1 (2.8%)
same,"Related TEAE Haematuria, number of occurrences",overall (N = 36),1
same,"Related TEAE Haematuria, subjects n (%)",overall (N = 36),1 (2.8%)
same,"Related TEAE Headache, number of occurrences",overall (N = 36),1
same,"Related TEAE Headache, subjects n (%)",overall (N = 36),1 (2.8%)
same,"Related TEAE Neutropenia, number of occurrences",overall (N = 36),1
same,"Related TEAE Neutropenia, subjects n (%)",overall (N = 36),1 (2.8%)
same,"Related TEAE Pain, number of occurrences",overall (N = 36),1
same,"Related TEAE Pain, subjects n (%)",overall (N = 36),1 (2.8%)
same,"Related TEAE Paraesthesia, number of occurrences",overall (N = 36),1
same,"Related TEAE Paraesthesia, subjects n (%)",overall (N = 36),1 (2.8%)
same,"SAEs Not related to study drug (strongest relationship), subjects n (%)",overall (N = 36),1 (2.8%)
same,"SAEs Not related to study drug, number of occurrences",overall (N = 36),1
same,"SAEs Related to study drug (strongest relationship), subjects",overall (N = 36),0
same,"Subjects reporting any SAEs, subjects n (%)",overall (N = 36),1 (2.8%)
same,"TEAE Abdominal discomfort, number of occurrences",overall (N = 36),1
same,"TEAE Abdominal discomfort, subjects n (%)",overall (N = 36),1 (2.8%)
same,"TEAE COVID-19, number of occurrences",overall (N = 36),1
same,"TEAE COVID-19, subjects n (%)",overall (N = 36),1 (2.8%)
same,"TEAE Death, number of occurrences",overall (N = 36),1
same,"TEAE Death, subjects n (%)",overall (N = 36),1 (2.8%)
same,"TEAE Diarrhea, number of occurrences",overall (N = 36),6
same,"TEAE Diarrhea, subjects n (%)",overall (N = 36),6 (16.7%)
same,"TEAE Epigastric discomfort, number of occurrences",overall (N = 36),1
same,"TEAE Epigastric discomfort, subjects n (%)",overall (N = 36),1 (2.8%)
same,"TEAE Fatigue, number of occurrences",overall (N = 36),1
same,"TEAE Fatigue, subjects n (%)",overall (N = 36),1 (2.8%)
same,"TEAE Haematuria, number of occurrences",overall (N = 36),1
same,"TEAE Haematuria, subjects n (%)",overall (N = 36),1 (2.8%)
same,"TEAE Headache, number of occurrences",overall (N = 36),2
same,"TEAE Headache, subjects n (%)",overall (N = 36),2 (5.6%)
same,"TEAE Neutropenia, number of occurrences",overall (N = 36),1
same,"TEAE Neutropenia, subjects n (%)",overall (N = 36),1 (2.8%)
same,"TEAE Pain, number of occurrences",overall (N = 36),1
same,"TEAE Pain, subjects n (%)",overall (N = 36),1 (2.8%)
same,"TEAE Paraesthesia, number of occurrences",overall (N = 36),1
same,"TEAE Paraesthesia, subjects n (%)",overall (N = 36),1 (2.8%)
same,"TEAE SOC Blood and lymphatic system disorders, number of occurrences",overall (N = 36),1
same,"TEAE SOC Blood and lymphatic system disorders, subjects n (%)",overall (N = 36),1 (2.8%)
same,"TEAE SOC Gastrointestinal disorders, number of occurrences",overall (N = 36),8
same,"TEAE SOC Gastrointestinal disorders, subjects n (%)",overall (N = 36),7 (19.4%)
same,"TEAE SOC General disorders and administration site conditions, number of occurrences",overall (N = 36),3
same,"TEAE SOC General disorders and administration site conditions, subjects n (%)",overall (N = 36),2 (5.6%)
same,"TEAE SOC Infections and infestations, number of occurrences",overall (N = 36),1
same,"TEAE SOC Infections and infestations, subjects n (%)",overall (N = 36),1 (2.8%)
same,"TEAE SOC Nervous system disorders, number of occurrences",overall (N = 36),3
same,"TEAE SOC Nervous system disorders, subjects n (%)",overall (N = 36),3 (8.3%)
same,"TEAE SOC Renal and urinary disorders, number of occurrences",overall (N = 36),1
same,"TEAE SOC Renal and urinary disorders, subjects n (%)",overall (N = 36),1 (2.8%)
same,"TEAEs Not Related to study drug (strongest relationship), subjects n (%)",overall (N = 36),1 (2.8%)
same,"TEAEs Not Related to study drug, number of occurrences",overall (N = 36),4
same,"TEAEs Related to study drug, number of occurrences",overall (N = 36),13
same,"TEAEs by maximum severity: Mild, number of occurrences",overall (N = 36),12
same,"TEAEs by maximum severity: Mild, subjects n (%)",overall (N = 36),6 (16.7%)
same,"TEAEs by maximum severity: Moderate, number of occurrences",overall (N = 36),4
same,"TEAEs by maximum severity: Moderate, subjects n (%)",overall (N = 36),3 (8.3%)
same,"TEAEs by maximum severity: Severe, number of occurrences",overall (N = 36),1
same,"TEAEs by maximum severity: Severe, subjects n (%)",overall (N = 36),1 (2.8%)
same,Total number of SAEs reported,overall (N = 36),1
same,Total number of TEAEs reported,overall (N = 36),17
same,"Any TEAE, number of occurrences",[2],4
same,"Related TEAE Abdominal discomfort, subjects n (%)",[2],0
same,"Related TEAE Diarrhea, number of occurrences",[2],1
same,"Related TEAE Diarrhea, subjects n (%)",[2],1 (16.7%)
same,"Related TEAE Epigastric discomfort, subjects n (%)",[2],0
same,"Related TEAE Fatigue, subjects n (%)",[2],0
same,"Related TEAE Haematuria, subjects n (%)",[2],0
same,"Related TEAE Headache, subjects n (%)",[2],0
same,"Related TEAE Neutropenia, number of occurrences",[2],1
same,"Related TEAE Neutropenia, subjects n (%)",[2],1 (16.7%)
same,"Related TEAE Pain, subjects n (%)",[2],0
same,"Related TEAE Paraesthesia, subjects n (%)",[2],0
same,"SAEs Not related to study drug (strongest relationship), subjects n (%)",[2],0
same,"SAEs Related to study drug (strongest relationship), subjects",[2],0
same,"Subjects reporting any SAEs, subjects n (%)",[2],0
same,"Subjects reporting any TEAE, subjects n (%)",[2],2 (33.3%)
same,"TEAE Abdominal discomfort, subjects n (%)",[2],0
same,"TEAE COVID-19, number of occurrences",[2],1
same,"TEAE COVID-19, subjects n (%)",[2],1 (16.7%)
same,"TEAE Death, subjects n (%)",[2],0
same,"TEAE Diarrhea, number of occurrences",[2],1
same,"TEAE Diarrhea, subjects n (%)",[2],1 (16.7%)
same,"TEAE Epigastric discomfort, subjects n (%)",[2],0
same,"TEAE Fatigue, subjects n (%)",[2],0
same,"TEAE Haematuria, subjects n (%)",[2],0
same,"TEAE Headache, number of occurrences",[2],1
same,"TEAE Headache, subjects n (%)",[2],1 (16.7%)
same,"TEAE Neutropenia, number of occurrences",[2],1
same,"TEAE Neutropenia, subjects n (%)",[2],1 (16.7%)
same,"TEAE Pain, subjects n (%)",[2],0
same,"TEAE Paraesthesia, subjects n (%)",[2],0
same,"TEAE SOC Blood and lymphatic system disorders, number of occurrences",[2],1
same,"TEAE SOC Blood and lymphatic system disorders, subjects n (%)",[2],1 (16.7%)
same,"TEAE SOC Gastrointestinal disorders, number of occurrences",[2],1
same,"TEAE SOC Gastrointestinal disorders, subjects n (%)",[2],1 (16.7%)
same,"TEAE SOC General disorders and administration site conditions, subjects n (%)",[2],0
same,"TEAE SOC Infections and infestations, number of occurrences",[2],1
same,"TEAE SOC Infections and infestations, subjects n (%)",[2],1 (16.7%)
same,"TEAE SOC Nervous system disorders, number of occurrences",[2],1
same,"TEAE SOC Nervous system disorders, subjects n (%)",[2],1 (16.7%)
same,"TEAE SOC Renal and urinary disorders, subjects n (%)",[2],0
same,"TEAEs Not Related to study drug (strongest relationship), subjects n (%)",[2],0
same,"TEAEs Related to study drug (strongest relationship), subjects n (%)",[2],2 (33.3%)
same,"TEAEs Related to study drug, number of occurrences",[2],2
same,"TEAEs by maximum severity: Mild, number of occurrences",[2],2
same,"TEAEs by maximum severity: Mild, subjects n (%)",[2],1 (16.7%)
same,"TEAEs by maximum severity: Moderate, number of occurrences",[2],2
same,"TEAEs by maximum severity: Moderate, subjects n (%)",[2],1 (16.7%)
same,"TEAEs by maximum severity: Severe, subjects n (%)",[2],0
same,Total number of SAEs reported,[2],0
same,Total number of TEAEs reported,[2],4
